Patent publication US20120142667A1, “PYRIMIDINE DERIVATIVES AS ZAP-70 INHIBITORS” (priority 2009, published 2012)
Where a name gives a salt, the structure may show the parent alone.

Assays:
ZAP-70 = target: T1, ZAP-70 (Homo sapiens, UniProt P43403); experiment: ZAP-70 kinobeads assay; type: binding; conditions: cell lysate
T1 construct: endogenous in cells; host or cells: cell lysate
T1 sequence (P43403 1-619): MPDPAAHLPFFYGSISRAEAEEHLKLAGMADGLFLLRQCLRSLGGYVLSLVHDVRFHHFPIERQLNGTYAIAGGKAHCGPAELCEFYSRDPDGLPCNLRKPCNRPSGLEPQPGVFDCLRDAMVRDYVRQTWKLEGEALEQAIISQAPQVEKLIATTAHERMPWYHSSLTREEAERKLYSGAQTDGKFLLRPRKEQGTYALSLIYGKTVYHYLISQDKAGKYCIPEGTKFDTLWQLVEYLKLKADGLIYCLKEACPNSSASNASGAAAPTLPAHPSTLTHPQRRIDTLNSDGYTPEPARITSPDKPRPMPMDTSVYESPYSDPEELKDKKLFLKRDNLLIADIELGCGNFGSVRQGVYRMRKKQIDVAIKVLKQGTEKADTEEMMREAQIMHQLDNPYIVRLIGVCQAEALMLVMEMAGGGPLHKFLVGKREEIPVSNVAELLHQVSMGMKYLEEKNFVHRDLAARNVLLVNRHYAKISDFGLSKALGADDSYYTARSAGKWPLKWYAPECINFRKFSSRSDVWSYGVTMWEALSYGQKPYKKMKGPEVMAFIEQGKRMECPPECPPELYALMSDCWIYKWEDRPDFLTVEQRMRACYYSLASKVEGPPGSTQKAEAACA
Method: The compounds of the present invention as described in the previous examples can be tested in the ZAP-70 kinobeads assay as described (EP-A 1862802 and WO-A 2007/137867). Briefly, test compounds (at various concentrations) and the affinity matrix with the immobilized aminopyrido-pyrimidine ligand 24 are added to cell lysate aliquots and allowed to bind to the proteins in the lysate sample. After the incubation time the beads with captured proteins are separated from the lysate. Bound proteins are then eluted and the presence ZAP-70 is detected and quantified using a specific antibody in a dot blot procedure and the Odyssey infrared detection system.

[1] = system: Calcium Ion Release in Cells; experiment: calcium release assay (measurement of calcium ion release in cells); type: cell-based; conditions: calcium release assay as described in WO-A 2009/080638

Row | IC50 (ZAP-70) | IC50 [1] | SMILES
1 | ≤ 0.1 µM | ≤ 1 µM | COc1ccc(Nc2nc(Nc3cc(OCCCN4CCCCC4)ccc3OC)ncc2Cl)c(NS(C)(=O)=O)c1 [Example 2, N-(2-(5-chloro-2-(2-methoxy-5-(3-(piperidin-1-yl)propoxy)phenylamino)pyrimidin-4-ylamino)-5-methoxyphenyl)methanesulfonamide]
2 | ≤ 0.1 µM | ≤ 1 µM | COc1ccc(Nc2nc(Nc3cnc(OC)cc3OC)ncc2Cl)c(NS(C)(=O)=O)c1 [Example 3, N-(2-(5-chloro-2-(4,6-dimethoxypyridin-3-ylamino)pyrimidin-4-ylamino)-5-methoxyphenyl)methanesulfonamide]
3 | 0.1 to 1 µM | ≤ 1 µM | COc1ccc(OC)c(Nc2ncc(Cl)c(Nc3ccccc3NS(C)(=O)=O)n2)c1 [Example 16, N-(2-(5-chloro-2-(2,5-dimethoxyphenylamino)pyrimidin-4-ylamino)phenyl)methanesulfonamide hydrochloride]
4 | ≤ 0.1 µM | ≤ 1 µM | COc1ccc(Nc2nc(Nc3ccc(OCCCN4CCCCC4)cc3OC)ncc2Cl)c(NS(C)(=O)=O)c1 [Example 30, N-(2-(5-chloro-2-(2-methoxy-4-(3-(piperidin-1-yl)propoxy)phenylamino)pyrimidin-4-ylamino)-5-methoxyphenyl)methanesulfonamide]
5 | 0.1 to 1 µM | ≤ 1 µM | COc1ccc(Nc2nc(Nc3ccc(OC)c(OC)c3OC)ncc2Cl)c(NS(C)(=O)=O)c1 [Example 32, N-(2-(5-chloro-2-(2,3,4-trimethoxyphenylamino)pyrimidin-4-ylamino)-5-methoxyphenyl)methanesulfonamide hydrochloride]
6 | ≤ 0.1 µM | ≤ 1 µM | COc1ccc(Nc2nc(Nc3cc(OC)c(OC)cc3C)ncc2Cl)c(NS(C)(=O)=O)c1 [Example 37, N-(2-(5-chloro-2-(4,5-dimethoxy-2-methylphenylamino)pyrimidin-4-ylamino)-5-methoxyphenyl)methanesulfonamide]
7 | 0.1 to 1 µM | ≤ 1 µM | COc1ccc(Nc2nc(Nc3ccc(OCCO)cc3F)ncc2Cl)c(NS(C)(=O)=O)c1 [Example 55, N-(2-(5-chloro-2-(2-fluoro-4-(2-hydroxyethoxy)phenylamino)pyrimidin-4-ylamino)-5-methoxyphenyl)methanesulfonamide]
8 | 0.1 to 1 µM | ≤ 1 µM | COc1ccc(C)c(Nc2ncc(Cl)c(Nc3ccc(OC)cc3NS(C)(=O)=O)n2)c1 [Example 57, N-(2-(5-chloro-2-(5-methoxy-2-methylphenylamino)pyrimidin-4-ylamino)-5-methoxyphenyl)methanesulfonamide hydrochloride]
9 | 0.1 to 1 µM | ≤ 1 µM | COc1ccc(Nc2nc(Nc3cc(OCCN)ccc3OC)ncc2Cl)c(NS(C)(=O)=O)c1 [Example 67, N-(2-(2-(5-(2-aminoethoxy)-2-methoxyphenylamino)-5-chloropyrimidin-4-ylamino)-5-methoxyphenyl)methanesulfonamide hydrochloride]
10 | ≤ 0.1 µM | ≤ 1 µM | COc1ccc(Nc2nc(Nc3cc(OCCO)ccc3OC)ncc2Cl)c(NS(C)(=O)=O)c1 [Example 68, N-(2-(5-chloro-2-(5-(2-hydroxyethoxy)-2-methoxyphenylamino)pyrimidin-4-ylamino)-5-methoxyphenyl)methanesulfonamide]
11 | 1 to 10 µM | – | COc1ccc(OCCO)cc1Nc1ncc(F)c(Nc2ccccc2NS(C)(=O)=O)n1 [Example 102, N-(2-(5-fluoro-2-(5-(2-hydroxyethoxy)-2-methoxyphenylamino)pyrimidin-4-ylamino)phenyl)methanesulfonamide]
12 | 1 to 10 µM | – | COc1ccc(Nc2nc(Nc3cc(OCC(C)(C)O)ccc3OC)ncc2Cl)c(NS(C)(=O)=O)c1 [Example 104, N-(2-((5-chloro-2-((5-(2-hydroxy-2-methylpropoxy)-2-methoxyphenyl)amino)pyrimidin-4-yl)amino)-5-methoxyphenyl)methanesulfonamide]
13 | 0.1 to 1 µM | – | COc1ccc(OCCO)cc1Nc1ncc(Cl)c(Nc2ccccc2NS(C)(=O)=O)n1 [Example 109, N-(2-(5-chloro-2-(5-(2-hydroxyethoxy)-2-methoxyphenylamino)pyrimidin-4-ylamino)phenyl)methanesulfonamide]
14 | 1 to 10 µM | – | COC(=O)CCc1ccc(OC)c(Nc2ncc(Cl)c(Nc3ccc(OC)cc3NS(C)(=O)=O)n2)c1 [Example 115, Methyl 3-(3-(5-chloro-4-(4-methoxy-2-(methylsulfonamido)phenylamino)pyrimidin-2-ylamino)-4-methoxyphenyl)propanoate]
15 | 0.1 to 1 µM | – | COc1ccc(OCCO)cc1Nc1ncc(Cl)c(Nc2cccc(F)c2NS(C)(=O)=O)n1 [Example 116, N-(2-(5-chloro-2-(5-(2-hydroxyethoxy)-2-methoxyphenylamino)pyrimidin-4-ylamino)-6-fluorophenyl)methanesulfonamide]
16 | ≤ 0.1 µM | – | COc1ccc(Nc2nc(Nc3cc(OCCO)ccc3OC)ncc2Br)c(NS(C)(=O)=O)c1 [Example 117, N-(2-((5-bromo-2-((5-(2-hydroxyethoxy)-2-methoxyphenyl)amino)pyrimidin-4-yl)amino)-5-methoxyphenyl)methanesulfonamide]

The remaining lines, values behind:

Row | SMILES | IC50 (ZAP-70) | IC50 [1]
17 | COc1ccc(Nc2nc(Nc3ccc(OCCO)cc3OC)ncc2Cl)c(NS(C)(=O)=O)c1 [Example 4, N-(2-(5-chloro-2-(4-(2-hydroxyethoxy)-2-methoxyphenylamino)pyrimidin-4-ylamino)-5-methoxyphenyl)methanesulfonamide] | ≤ 0.1 µM | ≤ 1 µM
18 | COc1ccc(Nc2nc(Nc3cccc(OCC(=O)N4CCC4)c3C)ncc2Cl)c(NS(C)(=O)=O)c1 [Example 5, N-(2 (2 (3 (2 (azetidin-1-yl)-2-oxoethoxy)-2-methylphenylamino)-5-chloropyrimidin-4-ylamino)-5-methoxyphenyl)methanesulfonamide] | ≤ 0.1 µM | ≤ 1 µM
19 | COc1ccc(Nc2nc(Nc3cc(OC)c(OC)cc3OC)ncc2Cl)c(NS(C)(=O)=O)c1 [Example 29, N-(2-(5-chloro-2-(2,4,5-trimethoxyphenylamino)pyrimidin-4-ylamino)-5-methoxyphenyl)methanesulfonamide] | 0.1 to 1 µM | ≤ 1 µM
20 | COc1ccc(Nc2nc(Nc3ccc(OCCN)cc3OC)ncc2Cl)c(NS(C)(=O)=O)c1 [Example 63, N-(2-(2-(4-(2-aminoethoxy)-2-methoxyphenylamino)-5-chloropyrimidin-4-ylamino)-5-methoxyphenyl)methanesulfonamide] | 0.1 to 1 µM | ≤ 1 µM
21 | COc1ccc(Nc2nc(Nc3cc(OCCO)ccc3F)ncc2Cl)c(NS(C)(=O)=O)c1 [Example 64, N-(2-(5-chloro-2-(2-fluoro-5-(2-hydroxyethoxy)phenylamino)pyrimidin-4-ylamino)-5-methoxyphenyl)methanesulfonamide] | 0.1 to 1 µM | ≤ 1 µM
22 | COc1ccc(Nc2nc(Nc3cccc(OCCO)c3C)ncc2Cl)c(NS(C)(=O)=O)c1 [Example 65, N-(2-(5-chloro-2-(3-(2-hydroxyethoxy)-2-methylphenylamino)pyrimidin-4-ylamino)-5-methoxyphenyl)methanesulfonamide] | ≤ 0.1 µM | ≤ 1 µM
23 | COc1ccc(Nc2nc(Nc3ccc(OCCN)cc3F)ncc2Cl)c(NS(C)(=O)=O)c1 [Example 69, N-(2-(2-(4-(2-aminoethoxy)-2-fluorophenylamino)-5-chloropyrimidin-4-ylamino)-5-methoxyphenyl)methanesulfonamide] | ≤ 0.1 µM | ≤ 1 µM
24 | COc1ccc(OCCO)cc1Nc1ncc(F)c(Nc2cccc(C)c2NS(C)(=O)=O)n1 [Example 103, N-(2-(5-fluoro-2-(5-(2-hydroxyethoxy)-2-methoxyphenylamino)pyrimidin-4-ylamino)-6-methylphenyl)methanesulfonamide] | 1 to 10 µM | –
25 | COc1ccc(Nc2nc(Nc3cc(OCCO)c(OC)cc3C)ncc2Cl)c(NS(C)(=O)=O)c1 [Example 114, N-(2-(5-chloro-2-(5-(2-hydroxyethoxy)-4-methoxy-2-methylphenylamino)pyrimidin-4-ylamino)-5-methoxyphenyl)methanesulfonamide] | 1 to 10 µM | –
26 | COc1ccc(OCCO)cc1Nc1ncc(Cl)c(Nc2cccc(C)c2NS(C)(=O)=O)n1 [Example 118, N-(2-(5-chloro-2-(5-(2-hydroxyethoxy)-2-methoxyphenylamino)pyrimidin-4-ylamino)-6-methylphenyl)methanesulfonamide] | 0.1 to 1 µM | –
27 | COc1ccc(OCCO)cc1Nc1ncc(Cl)c(Nc2cccc(OC)c2NS(C)(=O)=O)n1 [Example 119, N-(2-(5-chloro-2-(5-(2-hydroxyethoxy)-2-methoxyphenylamino)pyrimidin-4-ylamino)-6-methoxyphenyl)methanesulfonamide] | 0.1 to 1 µM | –
